US7625917B2, “Thiolesters and uses thereof” (priority 1998, dated 2009)
Where two headings read alike, the source gives them in different places.

Tests used:
[1] = target: T1, recombinant HIV-1 NCp7 protein (Human immunodeficiency virus type 1 group M subtype B, UniProt P03347); test: Trp37 zinc finger fluorescence (zinc ejection) assay; type: biochemical
T1 construct: recombinant HIV-1 NCp7 protein
Method: Zinc finger reactivity was measured using a Zn specific fluorochrome, TSQ, N-(6-methoxy-8-quinolyl)-p-toluenesulfonamide, assay or a Trp37 zinc finger fluorescence assay. Fluorescent measurements of the Trp37 residue in the C-terminal finger of recombinant HIV-1 NCp7 protein were performed as described by Rice (1995) Science 270:1194-1197; Rice (1997) Antimicrob. Agents Chemother. 41:419-426. Measurement of Zn ejection from both fingers was measured using the Zn-selective fluorchrome probe TSQ (Molecular Probes, Eugene Oreg.) as described by Rice (1996) J. Med. Chem 39:3606-3616. […] Briefly, 50 nM NCp7 was treated with test compounds for 1 hour at RT in […] buffer containing 10% glycerol and 50 mM Tris-HCl (pH 7.5). Labeled oligomer (0.1 picomole, end labeled [^32P] was added in an equal volume of buffer containing 10% glycerol, 50 mM Tris-HCl (pH 7.5), 400 mM KCl and 40 mM MgCl2. The reaction was continued for 15 min at room temperature, and a total of […] (or ¼ of the total reaction volume) was separated on nondenaturing 4.5% polyacrylamide gels in 0.5× Tris-Borate electrophoresis buffer. NCp7-oligomer complexes were visualized by autoradiography.
Changes in the intrinsic fluorescence of aromatic protein moieties are commonly used to monitor a reaction which involves a change in protein conformation. In the present invention, fluorescence can be used to monitor the loss of metal ion from a zinc finger, e.g., the loss of zinc from a CCHC retroviral zinc finger protein, after contact with a thiolester of the invention. The intrinsic fluorescence of Trp37 in the second zinc finger of HIV-1 NC protein has been used to monitor nucleic acid binding and conformation of the zinc finger complex (see, Summers (1992) supra).
Zinc ejection is measured by the ability of compounds to chemically attack the cysteines in purified NCp7 protein resulting in a loss of fluorescence due to the. movement of the tryptophan 37 residue […] position on the protein. Zinc ejection is measured and expressed as either percent decrease in total fluorescence or decrease in relative fluorescence units per min during a 30 min assay (RFU/min). A thiolester is considered within the scope of the invention if any amount of zinc ejection is detected.

[2] = tested on: HIV-1RF; test: XTT cytoprotection assay (antiviral activity); type: cell-based
Text: One exemplary means to determine antiviral activity is with CEM-SS cells and virus (e.g., HIV-1RF) (MOI=0.01) using the XTT (2,3-bis[2-methoxy-4-nitro-5-sulfophenyl]-5-[(phenylamino)carbonyl]-2H-tetrazolium hydroxide) cytoprotection assay, as described by Rice (1993) PNAS 90:9721-9724, and Rice (1997) Antimicrob. Agents Chemother. 41:419-426. Briefly, cells are infected with HIV-1 RF (or other virus to be tested) in the presence of various dilutions of test compounds (thiolesters and controls). The cultures are incubated for seven days. During this time control cultures without protective compounds (i.e., compounds with anti-viral activity) replicate virus, induce syncytia, and result in about 90% cell death. The cell death is measured by XTT dye reduction. XTT is a soluble tetrazolium dye that measures mitochondrial energy output, similar to MTT. Positive controls using dextran sulfate (an attachment inhibitor) or 3′-Azido-2′-3′-dideoxythymidine, AZT (a reverse transcriptase inhibitor) are added to each assay. Individual assays are done in duplicate using a sister plate method.
Effective antiviral concentrations providing 50% cytoprotection (EC50), and cellular growth inhibitory concentrations causing 50% cytotoxicity (IC50) are calculated.

[3] = tested on: CEM-SS cells; test: cells; type: cell-based; details: for cellular toxicity (in words): high test dose of 316 μM
Method: Agents Chemother. […] Briefly, cells are infected with HIV-1 RF (or other virus to be tested) in the presence of various dilutions of test compounds (thiolesters and controls). The cultures are incubated for seven days. […] The cell death is measured by XTT dye reduction. XTT is a soluble tetrazolium dye that measures mitochondrial energy output, similar to MTT. Positive controls using dextran sulfate (an attachment inhibitor) or 3′-Azido-2′-3′-dideoxythymidine, AZT (a reverse transcriptase inhibitor) are added to each assay. Individual assays are done in duplicate using a sister plate method.

[4] = Table 3, average decrease in relative fluorescence
[5] = read-out: EC50 (concentration inhibiting 50% virus replication)
[6] = Table 3, 50% cytotoxicity, read-out: IC50
[7] = Table 5, average decrease in relative fluorescence units over 30 min
[8] = Table 5, 50% cytotoxicity, read-out: IC50
[9] = Table 10, average decrease in relative fluorescence units over 30 min
[10] = Table 10, 50% cytotoxicity, read-out: IC50

With `NS(=O)(=O)c1ccc(NC(=O)CNC(=O)c2ccccc2SSc2ccccc2C(=O)NCC(=O)Nc2ccc(S(N)(=O)=O)cc2)cc1` [Compound 25 D, N,N′-(2,2′-dithiodibenzoyl)-bis-4-(glycinamido)benzenesulfonamide] the “zinc finger reactivity / zinc ejection rate” value [1] was 7.9 RFU/min, the EC50 ([2]; Table 2, read-out: EC50) was 1.6 µM and the IC50 ([3]; Table 2, 50% cytotoxicity, read-out: IC50) was 17.6 µM.

For `Nc1ccc(S(=O)(=O)c2ccc(NC(=O)c3ccccc3SSc3ccccc3C(=O)Nc3ccc(S(=O)(=O)c4ccc(N)cc4)cc3)cc2)cc1` [Compound 26 D], the “zinc finger reactivity / zinc ejection rate” value [1] was 3.3 RFU/min, the “Zinc Finger Reactivity RFU/min” value [1, 4] was 3.3 RFU/min and the EC50 ([2]; Table 3, read-out: EC50) was 4.3 µM. For the same molecule, the EC50 [2, 5] was 4.3 µM and the IC50 [3, 6] was under 316 µM.

With `CC(=O)Nc1ccc(S(=O)(=O)c2ccc(NC(=O)c3ccccc3SSc3ccccc3C(=O)Nc3ccc(S(=O)(=O)c4ccc(NC(C)=O)cc4)cc3)cc2)cc1` [Compound 27 D] the “zinc finger reactivity / zinc ejection rate” value [1] was 5.9 RFU/min, the “Zinc Finger Reactivity RFU/min” value [1, 4] was 5.9 RFU/min and the EC50 ([2]; Table 3, read-out: EC50) was 1.5 µM. It also gave an EC50 [2, 5] of 1.5 µM and an IC50 ([3]; read-out: toxicity / IC50) of 160 µM.

`CC(=O)Nc1ccc(S(=O)(=O)Nc2ccc(S(=O)(=O)c3ccc(-n4sc5ccccc5c4=O)cc3)cc2)cc1` [Compound 28 BITA] was tested, and the “Zinc Finger Reactivity RFU/min” value [1, 4] was 7.9 RFU/min, the EC50 ([2]; Table 3, read-out: EC50) was 9.6 µM and the IC50 [3, 6] was 188 µM.

With `CC(=O)Nc1ccc(S(=O)(=O)Nc2ccc(S(=O)(=O)c3ccc(NC(=O)c4ccccc4SSc4ccccc4C(=O)Nc4ccc(S(=O)(=O)c5ccc(NS(=O)(=O)c6ccc(NC(C)=O)cc6)cc5)cc4)cc3)cc2)cc1` [Compound 28 D] the “Zinc Finger Reactivity RFU/min” value [1, 4] was 5.9 RFU/min, the EC50 ([2]; Table 3, read-out: EC50) was 1 µM and the IC50 [3, 6] was 12.7 µM.

`O=c1c2ccccc2sn1-c1ccc(S(=O)(=O)c2ccc([N+](=O)[O-])cc2)cc1` [Compound 31 BITA] was tested, and the “Zinc Finger Reactivity RFU/min” value [1, 4] was 4.1 RFU/min, the “antiviral activity (in words)” value [2] was “without antiviral activity” and the IC50 [3, 6] was over 316 µM.

For `O=C(Nc1ccc(S(=O)(=O)c2ccc([N+](=O)[O-])cc2)cc1)c1ccccc1SSc1ccccc1C(=O)Nc1ccc(S(=O)(=O)c2ccc([N+](=O)[O-])cc2)cc1` [Compound 31 D], the “Zinc Finger Reactivity RFU/min” value [1, 4] was 2.9 RFU/min, the “EC50 increase vs compound 26” value [2] was 2.6 fold and the EC50 [2, 5] was 12.2 µM. The IC50 [3, 6] was over 316 µM, the “cellular toxicity (in words)” value [3] was “non-toxic” and the “cellular toxicity (in words)” value ([3]; listed as 31) was “no toxicity”.

For `O=C(Nc1ccc(S(=O)(=O)c2ccc(NC(=O)c3ccccc3SSc3ccccc3C(=O)Nc3ccc(S(=O)(=O)c4ccc(NC(=O)c5ccc([N+](=O)[O-])cc5)cc4)cc3)cc2)cc1)c1ccc([N+](=O)[O-])cc1` [Compound 32 D], the “Zinc Finger Reactivity RFU/min” value [1, 4] was 2.9 RFU/min, the EC50 ([2]; Table 3, read-out: EC50) was 78 µM and the IC50 [3, 6] was over 316 µM.

`O=c1c2ccccc2sn1-c1ccc(S(=O)(=O)c2ccc(NS(=O)(=O)Cc3ccccc3[N+](=O)[O-])cc2)cc1` [Compound 34 BITA] was tested, and the “Zinc Finger Reactivity RFU/min” value [1, 4] was 2 RFU/min, the “antiviral activity (in words)” value [2] was “significant antiviral activity” and the EC50 ([2]; Table 3, read-out: EC50) was 3.2 µM. For the same molecule, the IC50 [3, 6] was 59.5 µM.

In the case of `O=C(Nc1ccc(S(=O)(=O)c2ccc(NS(=O)(=O)Cc3ccccc3[N+](=O)[O-])cc2)cc1)c1ccccc1SSc1ccccc1C(=O)Nc1ccc(S(=O)(=O)c2ccc(NS(=O)(=O)Cc3ccccc3[N+](=O)[O-])cc2)cc1` [Compound 34 D], the “Zinc Finger Reactivity RFU/min” value [1, 4] is reported as 1.5 RFU/min, the “antiviral activity (in words)” value [2] is reported as “significant antiviral activity” and the EC50 [2, 5] is reported as 12.3 µM. The IC50 [3, 6] was over 316 µM and the “cellular toxicity (in words)” value [3] was “no toxicity”.

In the case of `CC(=O)NS(=O)(=O)c1ccc(NC(=O)c2ccccc2NC(=O)CCCl)cc1` [Compound 37, N-[2-(3-chloro-propionamido)benzoyl]sulfacetamide], the “zinc finger reactivity (in words)” value [1] is reported as “modest zinc finger reactivity”, the “Zinc Finger Reactivity RFU/min” value [1, 7] is reported as 2.0 RFU/min and the “antiviral activity (in words)” value [2] is reported as “neither had appreciable antiviral activity”. It also gave an IC50 [3, 8] of over 316 µM.

With `CC(=O)NS(=O)(=O)c1ccc(NC(=O)c2cccc(NC(=O)CCCl)c2)cc1` [Compound 38] the “zinc finger reactivity (in words)” value [1] was “modest zinc finger reactivity”, the “Zinc Finger Reactivity RFU/min” value [1, 7] was 3.9 RFU/min and the “antiviral activity (in words)” value [2] was “neither had appreciable antiviral activity”. It also gave an EC50 ([2]; Table 5, read-out: EC50) of 38 µM and an IC50 [3, 8] of 103 µM.

`CC(=O)NS(=O)(=O)c1ccc(NC(=O)c2ccccc2NC(=O)CCl)cc1` [Compound 39] was tested, and the “Zinc Finger Reactivity RFU/min” value [1, 7] was 0.3 RFU/min, the “antiviral activity (in words)” value [2] was “completely inactive” and the IC50 [3, 8] was 202 µM.

For `CC(=O)NS(=O)(=O)c1ccc(NC(=O)c2ccccc2SC(C)=O)cc1` [Compound 40], the “Zinc Finger Reactivity RFU/min” value [1, 7] was 4.2 RFU/min, the EC50 ([2]; Table 5, read-out: EC50) was 2.8 µM and the IC50 [3, 8] was 56.7 µM. The IC50 ([3]; read-out: IC50 range) was about 50 µM.

For `CC(=O)NS(=O)(=O)c1ccc(NC(=O)c2ccccc2SC(=O)c2ccccc2)cc1` [Compound 41], the “Zinc Finger Reactivity RFU/min” value [1, 7] was 2.2 RFU/min, the EC50 ([2]; Table 5, read-out: EC50) was 2.6 µM and the IC50 [3, 8] was 45.7 µM. The IC50 ([3]; read-out: IC50 range) was about 50 µM.

`COc1ccc(C(=O)Sc2ccccc2C(=O)Nc2ccc(S(=O)(=O)NC(C)=O)cc2)cc1` [Compound 42] was tested, and the “Zinc Finger Reactivity RFU/min” value [1, 7] was 3.5 RFU/min, the EC50 ([2]; Table 5, read-out: EC50) was 2.8 µM and the IC50 [3, 8] was 43.7 µM. The IC50 ([3]; read-out: IC50 range) was about 50 µM.

With `O=C(CCCCBr)Sc1ccccc1C(=O)Nc1ccc(S(=O)(=O)c2ccc([N+](=O)[O-])cc2)cc1` [Compound 46] the “Zinc Finger Reactivity RFU/min” value ([1]; Table 6, average decrease in relative fluorescence units over 30 min) was 1 RFU/min, the EC50 ([2]; Table 6, read-out: EC50 %) was 1.6 µM and the IC50 ([3]; Table 6, 50% cytotoxicity, read-out: IC50) was 21.7 µM.

In the case of `CC(=O)NS(=O)(=O)c1ccc(NC(=O)c2ccccc2SC(=O)CCC[n+]2ccccc2)cc1` [Compound 54], the “Zinc Finger Reactivity RFU/min” value [1, 9] is reported as 2.2 RFU/min, the EC50 ([2]; Table 10, read-out: EC50 %) is reported as 10.1 µM and the IC50 [3, 10] is reported as 175 µM.

In the case of `CC(=O)NS(=O)(=O)c1ccc(NC(=O)c2ccccc2SC(=O)CCCCC[n+]2ccccc2)cc1` [Compound 55], the “Zinc Finger Reactivity RFU/min” value [1, 9] is reported as 1.9 RFU/min, the EC50 ([2]; Table 10, read-out: EC50 %) is reported as 10.5 µM and the IC50 [3, 10] is reported as 69.7 µM.

In the case of `CC(=O)NS(=O)(=O)c1ccc(NC(=O)c2ccccc2NC(=O)CCCC[n+]2ccccc2)cc1` [Compound 56], the “Zinc Finger Reactivity RFU/min” value [1, 9] is reported as 2.6 RFU/min, the “antiviral activity (in words)” value [2] is reported as “inactive” and the IC50 [3, 10] is reported as over 316 µM.

In the case of `CC(=O)NS(=O)(=O)c1ccc(NC(=O)c2ccccc2SC(=O)CCCC[n+]2cccc(Cl)c2)cc1` [Compound 57], the “Zinc Finger Reactivity RFU/min” value [1, 9] is reported as 0.2 RFU/min, the EC50 ([2]; Table 10, read-out: EC50 %) is reported as 54 µM and the IC50 [3, 10] is reported as 264 µM.
